Patent US20030036524A1, “Method of sensitising endothelial cells to prodrugs” (priority 2000, published 2003)

System: HUVEC cells
Assay: Functional bio-assay: endothelial cell proliferation of Ad5C2B1-infected HUVEC cells treated with ifosfamide, crystal-violet cell number
Assay type: cell-based, human
Details: day 8
Experimental: To test the bioactivity of the CYP2B1 transgene, human umbilical vein […] (HUVEC) cells [Jaffe et al.; J. Clin. Invest.
HUVEC cells were infected with Ad5C2B1 on day 2 with concentrations ranging from 0 to 2×10^8 PFU/ml for 2 hours.
The cells were seeded at 40.000 cells/well at day 3 (some wells were not sub-cultured but saved for cell extracts and medium collection at day 4).
HUVEC cells were grown on gelatin-coated tissue culture dishes in medium 199 (Biowhitakker), supplemented with 10% (vol/vol) human serum, 10% (v/v) heat-inactivated newborn calf serum (Biowhitakker), 5 U/mL of heparin (Leo Pharma BV), […] of crude EC growth factor (TNO-PG, Leiden), 100 U/mL of penicillin, and […] of streptomycin (Biowhitakker). Cells were grown at 37° C. in a humid atmosphere with 5% (vol/vol) CO2.
Cell numbers were determined at day 8 using crystal-violet staining and optical density measurement.
To quantify the effect off viral infection and prodrug treatment the cells numbers were determined as described above.

Structure (SMILES): O=P1(NCCCl)OCCCN1CCCl (stereo not drawn) [Ifosfamide, ifosfamide]
- Number of Cells (Virus 0 PFU/ml, Ifosfamide 0.0625 mM): 152000
- Number of Cells (Virus 0 PFU/ml, Ifosfamide 0.125 mM): 151600
- Number of Cells (Virus 0 PFU/ml, Ifosfamide 0.25 mM): 152500
- Number of Cells (Virus 0 PFU/ml, Ifosfamide 0.50 mM): 116000
- Number of Cells (Virus 1 × 10^8 PFU/ml, Ifosfamide 0.0625 mM): 80500
- Number of Cells (Virus 1 × 10^8 PFU/ml, Ifosfamide 0.125 mM): 63600
- Number of Cells (Virus 1 × 10^8 PFU/ml, Ifosfamide 0.25 mM): 66000
- Number of Cells (Virus 1 × 10^8 PFU/ml, Ifosfamide 0.50 mM): 38500
- Number of Cells (Virus 1.25 × 10^7 PFU/ml, Ifosfamide 0.0625 mM): 98000
- Number of Cells (Virus 1.25 × 10^7 PFU/ml, Ifosfamide 0.125 mM): 110000
- Number of Cells (Virus 1.25 × 10^7 PFU/ml, Ifosfamide 0.25 mM): 102000
- Number of Cells (Virus 1.25 × 10^7 PFU/ml, Ifosfamide 0.50 mM): 85000
- Number of Cells (Virus 2 × 10^8 PFU/ml, Ifosfamide 0.0625 mM): 60000
- Number of Cells (Virus 2 × 10^8 PFU/ml, Ifosfamide 0.125 mM): 54000
- Number of Cells (Virus 2 × 10^8 PFU/ml, Ifosfamide 0.25 mM): 53000
- Number of Cells (Virus 2 × 10^8 PFU/ml, Ifosfamide 0.50 mM): 30000
- Number of Cells (Virus 2.5 × 10^7 PFU/ml, Ifosfamide 0.0625 mM): 88000
- Number of Cells (Virus 2.5 × 10^7 PFU/ml, Ifosfamide 0.125 mM): 85000
- Number of Cells (Virus 2.5 × 10^7 PFU/ml, Ifosfamide 0.25 mM): 79200
- Number of Cells (Virus 2.5 × 10^7 PFU/ml, Ifosfamide 0.50 mM): 56000
- Number of Cells (Virus 5 × 10^7 PFU/ml, Ifosfamide 0.0625 mM): 87000
- Number of Cells (Virus 5 × 10^7 PFU/ml, Ifosfamide 0.125 mM): 85000
- Number of Cells (Virus 5 × 10^7 PFU/ml, Ifosfamide 0.25 mM): 75000
- Number of Cells (Virus 5 × 10^7 PFU/ml, Ifosfamide 0.50 mM): 55000
